These compounds were tested on HEK293 cells (assay: Preliminary screening as mRNA vectors, EGFP mRNA transfection of HEK293 cells). Conditions: EGFP mRNA 50 ng per well, 96-well plates; percentage of GFP fluorescent cells relative to total number of cells (Hoechst).
Format: cell-based
How it was run: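 Each well of HEK293 cells received 50 ng of EGFP mRNA. Efficiency was expressed as percent GFP-expressing cells over Hoechst-defined total cell number.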

SMILES	Absolute mRNA transfection efficiency in HEK293 cells
CCCCCCCCCCCCCCCCSc1nc(NCCCCCC)nc(NCCN2CCCCC2)n1 [Compound D4S16N6]	2.6%
CCCCCCCCCCCCCCCCSc1nc(NCCCCCCC)nc(NCCN2CCCCC2)n1 [Compound D4S16N7]	0.8%
CCCCCCCCCCCCCCCCSc1nc(NCCCCCCCC)nc(NCCN2CCCCC2)n1 [Compound D4S16N8]	1.3%
CCCCCCCCCCCCCCCCSc1nc(NCCCCCCCCC)nc(NCCN2CCCCC2)n1 [Compound D4S16N9]	1.0%
CCCCCCCCCCCCCCCCSc1nc(NCCCCCCCCCCC)nc(NCCN2CCCCC2)n1 [Compound D4S16N11]	0.5%
CCCCCCCCCCCCCCCCSc1nc(NCCCCCCCCCCCC)nc(NCCN2CCCCC2)n1 [Compound D4S16N12]	0.1%
CCCCCCCCCCCCCCCCSc1nc(NCCCCCCCCCCCCC)nc(NCCN2CCCCC2)n1 [Compound D4S16N13]	0.1%
CCCCCCCCCCCCCCCCSc1nc(NCCCCCCCCCCCCCCC)nc(NCCN2CCCCC2)n1 [Compound D4S16N15]	0.1%
CCCCCCCCCCCCCCCCNc1nc(NCCN2CCCCC2)nc(SCCCCCCCCCCCCCCCC)n1 [Compound D4S16N16]	3.6%
CCCCCCCCCCCCCCCCCCNc1nc(NCCN2CCCCC2)nc(SCCCCCCCCCCCCCCCC)n1 [Compound D4S16N18]	6.3%
CCCCCCCCCCCCCCCCCCSc1nc(NCCCCCC)nc(NCCN2CCCCC2)n1 [Compound D4S18N6]	1.5%
CCCCCCCCCCCCCCCCCCSc1nc(NCCCCCCC)nc(NCCN2CCCCC2)n1 [Compound D4S18N7]	0.3%
CCCCCCCCCCCCCCCCCCSc1nc(NCCCCCCCCC)nc(NCCN2CCCCC2)n1 [Compound D4S18N9]	0.2%
CCCCCCCCCCCCCCCCCCSc1nc(NCCCCCCCCCCC)nc(NCCN2CCCCC2)n1 [Compound D4S18N11]	0.9%
CCCCCCCCCCCCCCCCCCSc1nc(NCCCCCCCCCCCC)nc(NCCN2CCCCC2)n1 [Compound D4S18N12]	0.7%
CCCCCCCCCCCCCCCCCCSc1nc(NCCCCCCCCCCCCC)nc(NCCN2CCCCC2)n1 [Compound D4S18N13]	0.7%
CCCCCCCCCCCCCCCCCCSc1nc(NCCCCCCCCCCCCCCC)nc(NCCN2CCCCC2)n1 [Compound D4S18N15]	1.6%
CCCCCCCCCCCCCCCCCCSc1nc(NCCCCCCCCCCCCCCCC)nc(NCCN2CCCCC2)n1 [Compound D4S18N16]	0.4%
CCCCCCCCCCCCCCCCCCNc1nc(NCCN2CCCCC2)nc(SCCCCCCCCCCCCCCCCCC)n1 [Compound D4S18N18]	0.2%
CCCCCCNc1nc(NCCN2CCN(C)CC2)nc(SCCCCCC)n1 [Compound D5S6N6]	2.1%
CCCCCCCNc1nc(NCCN2CCN(C)CC2)nc(SCCCCCC)n1 [Compound D5S6N7]	4.3%
CCCCCCCCNc1nc(NCCN2CCN(C)CC2)nc(SCCCCCC)n1 [Compound D5S6N8]	5.9%
CCCCCCCCCNc1nc(NCCN2CCN(C)CC2)nc(SCCCCCC)n1 [Compound D5S6N9]	2.0%
CCCCCCCCCCCNc1nc(NCCN2CCN(C)CC2)nc(SCCCCCC)n1 [Compound D5S6N11]	5.3%
CCCCCCCCCCCCNc1nc(NCCN2CCN(C)CC2)nc(SCCCCCC)n1 [Compound D5S6N12]	4.4%
CCCCCCCCCCCCCNc1nc(NCCN2CCN(C)CC2)nc(SCCCCCC)n1 [Compound D5S6N13]	7.2%
